Measurements from the OligoGym collection.
HELM strings list units from the 5' end as sugar, base in round brackets, then linkage (d deoxyribose, r ribose, m 2'-O-methyl, p phosphodiester). Strings are as the collection lists them; they lack the last nucleoside at the 3' end of the tested compound. [moe] = 2'-O-(2-methoxyethyl) (MOE); [sp] = phosphorothioate linkage; [m5C] = 5-methylcytosine

Each substance was assayed against UBE3A-ATS (assay: mouse, dose not given). Conditions: ASO.

Substance	3 h FOB score [score 0-7]
RNA1{[moe](G)[sp].[moe](A)p.[moe](G)p.[moe]([m5C])p.[moe](T)[sp].d(A)[sp].d(T)[sp].d([m5C])[sp].d(T)[sp].d(G)[sp].d(T)[sp].d(A)[sp].d([m5C])[sp].[moe](A)p.[moe](A)p.[moe](A)[sp].[moe](A)}$$$$ (last 3' nucleoside missing)	6
RNA1{[moe](G)[sp].[moe](A)p.[moe](G)p.[moe]([m5C])p.[moe](T)p.[moe](A)[sp].d(T)[sp].d([m5C])[sp].d(T)[sp].d(G)[sp].d(T)[sp].d(A)[sp].d([m5C])[sp].d(A)[sp].[moe](A)p.[moe](A)[sp].[moe](A)}$$$$ (last 3' nucleoside missing)	4.7
RNA1{[moe](G)[sp].[moe](A)p.[moe](G)p.[moe]([m5C])p.[moe](T)p.[moe](A)p.d(T)[sp].d([m5C])[sp].d(T)[sp].d(G)[sp].d(T)[sp].d(A)[sp].d([m5C])[sp].d(A)[sp].d(A)[sp].d(A)[sp].[moe](A)p.[moe](T)[sp].[moe](G)}$$$$ (last 3' nucleoside missing)	5.2
RNA1{[moe](G)[sp].[moe](A)p.[moe](G)p.[moe]([m5C])p.[moe](T)p.d(A)[sp].d(T)[sp].d([m5C])[sp].d(T)[sp].d(G)[sp].d(T)[sp].d(A)[sp].d([m5C])[sp].d(A)[sp].d(A)[sp].[moe](A)p.[moe](A)p.[moe](T)[sp].[moe](G)}$$$$ (last 3' nucleoside missing)	6.7
RNA1{[moe](G)[sp].[moe](A)p.[moe](G)p.[moe]([m5C])p.d(T)[sp].d(A)[sp].d(T)[sp].d([m5C])[sp].d(T)[sp].d(G)[sp].d(T)[sp].d(A)[sp].d([m5C])[sp].d(A)[sp].[moe](A)p.[moe](A)p.[moe](A)p.[moe](T)[sp].[moe](G)}$$$$ (last 3' nucleoside missing)	4.7
RNA1{[moe](G)[sp].[moe](A)p.[moe](T)p.[moe](A)p.[moe](G)p.d(G)[sp].d(G)[sp].d(T)[sp].d(T)[sp].d(T)[sp].d(A)[sp].d(G)[sp].d(G)[sp].d(T)[sp].d([m5C])[sp].[moe](A)p.[moe](A)p.[moe]([m5C])[sp].[moe]([m5C])}$$$$ (last 3' nucleoside missing)	5
RNA1{[moe](G)[sp].[moe](A)p.[moe](T)p.[moe](T)p.[moe](A)p.d(T)[sp].d([m5C])[sp].d(T)[sp].d([m5C])[sp].d(A)[sp].d(G)[sp].d(A)[sp].d([m5C])[sp].d(A)[sp].d(T)[sp].[moe](G)p.[moe]([m5C])p.[moe]([m5C])[sp].[moe](A)}$$$$ (last 3' nucleoside missing)	3.2
RNA1{[moe](G)[sp].[moe](A)p.[moe](T)p.[moe](T)p.[moe](G)p.d(A)[sp].d(T)[sp].d([m5C])[sp].d(A)[sp].d(T)[sp].d(G)[sp].d(T)[sp].d(T)[sp].d(A)[sp].d(T)[sp].[moe](G)p.[moe]([m5C])p.[moe]([m5C])[sp].[moe]([m5C])}$$$$ (last 3' nucleoside missing)	2
RNA1{[moe](G)[sp].[moe](A)p.[moe](T)p.[moe](T)p.[moe](G)p.d(A)[sp].d([m5C])[sp].d(T)[sp].d(A)[sp].d([m5C])[sp].d(T)[sp].d(T)[sp].d([m5C])[sp].d(A)[sp].d(A)[sp].[moe]([m5C])p.[moe]([m5C])p.[moe](T)[sp].[moe](G)}$$$$ (last 3' nucleoside missing)	1.3
RNA1{[moe](G)[sp].[moe](A)p.[moe](T)p.[moe](T)p.[moe](T)p.d(T)[sp].d(A)[sp].d(T)[sp].d(T)[sp].d(G)[sp].d(G)[sp].d(T)[sp].d([m5C])[sp].d(A)[sp].d(T)[sp].[moe]([m5C])p.[moe](T)p.[moe]([m5C])[sp].[moe](G)}$$$$ (last 3' nucleoside missing)	6.8
RNA1{[moe](G)[sp].[moe](A)p.[moe](T)p.[moe](T)p.[moe](T)p.d([m5C])[sp].d([m5C])[sp].d(T)[sp].d(T)[sp].d(A)[sp].d([m5C])[sp].d(T)[sp].d(G)[sp].d(A)[sp].d(G)[sp].[moe](T)p.[moe](G)p.[moe](A)[sp].[moe](G)}$$$$ (last 3' nucleoside missing)	1
RNA1{[moe](G)[sp].[moe](A)p.[moe](T)p.[moe](T)p.[moe]([m5C])p.d(A)[sp].d(A)[sp].d(T)[sp].d(A)[sp].d(G)[sp].d(T)[sp].d(G)[sp].d(T)[sp].d(A)[sp].d(G)[sp].[moe](G)p.[moe](T)p.[moe](G)[sp].[moe](A)}$$$$ (last 3' nucleoside missing)	3.3
RNA1{[moe](G)[sp].[moe](A)p.[moe](T)p.[moe]([m5C])[sp].d(A)[sp].d([m5C])[sp].d(A)[sp].d(T)[sp].d(T)[sp].d(A)[sp].d([m5C])[sp].d([m5C])[sp].[moe]([m5C])p.[moe](A)p.[moe](T)p.[moe]([m5C])[sp].[moe]([m5C])}$$$$ (last 3' nucleoside missing)	0
RNA1{[moe](G)[sp].[moe](A)p.[moe](T)p.[moe]([m5C])p.[moe](A)[sp].d([m5C])[sp].d(A)[sp].d(T)[sp].d(T)[sp].d(A)[sp].d([m5C])[sp].d([m5C])[sp].d([m5C])[sp].[moe](A)p.[moe](T)p.[moe]([m5C])[sp].[moe]([m5C])}$$$$ (last 3' nucleoside missing)	2
RNA1{[moe](G)[sp].[moe](A)p.[moe](T)p.[moe]([m5C])p.[moe](A)p.[moe]([m5C])[sp].d(A)[sp].d(T)[sp].d(T)[sp].d(A)[sp].d([m5C])[sp].d([m5C])[sp].d([m5C])[sp].d(A)[sp].[moe](T)p.[moe]([m5C])[sp].[moe]([m5C])}$$$$ (last 3' nucleoside missing)	0
RNA1{[moe](G)[sp].[moe](A)p.[moe](T)p.[moe]([m5C])p.[moe](A)p.[moe]([m5C])p.d(A)[sp].d(T)[sp].d(T)[sp].d(A)[sp].d([m5C])[sp].d([m5C])[sp].d([m5C])[sp].d(A)[sp].d(T)[sp].d([m5C])[sp].[moe]([m5C])p.[moe](G)[sp].[moe](T)}$$$$ (last 3' nucleoside missing)	0
RNA1{[moe](G)[sp].[moe](A)p.[moe](T)p.[moe]([m5C])p.[moe](A)p.d(T)[sp].d(G)[sp].d(T)[sp].d(G)[sp].d([m5C])[sp].d(A)[sp].d(T)[sp].d(A)[sp].d([m5C])[sp].d([m5C])[sp].[moe]([m5C])p.[moe](A)p.[moe](G)[sp].[moe](G)}$$$$ (last 3' nucleoside missing)	5.7
RNA1{[moe](G)[sp].[moe](A)p.[moe](T)p.[moe]([m5C])p.[moe](A)p.d([m5C])[sp].d(A)[sp].d(T)[sp].d(T)[sp].d(A)[sp].d([m5C])[sp].d([m5C])[sp].d([m5C])[sp].d(A)[sp].d(T)[sp].[moe]([m5C])p.[moe]([m5C])p.[moe](G)[sp].[moe](T)}$$$$ (last 3' nucleoside missing)	0
RNA1{[moe](G)[sp].[moe](A)p.[moe](T)p.[moe]([m5C])p.[moe](T)p.d(T)[sp].d(G)[sp].d(G)[sp].d(T)[sp].d(A)[sp].d(A)[sp].d(G)[sp].d(G)[sp].d([m5C])[sp].d(A)[sp].[moe](G)p.[moe]([m5C])p.[moe](T)[sp].[moe]([m5C])}$$$$ (last 3' nucleoside missing)	6.8
RNA1{[moe](G)[sp].[moe](A)p.[moe](T)p.[moe]([m5C])p.d(A)[sp].d([m5C])[sp].d(A)[sp].d(T)[sp].d(T)[sp].d(A)[sp].d([m5C])[sp].d([m5C])[sp].d([m5C])[sp].d(A)[sp].[moe](T)p.[moe]([m5C])p.[moe]([m5C])p.[moe](G)[sp].[moe](T)}$$$$ (last 3' nucleoside missing)	0
RNA1{[moe](G)[sp].[moe](A)p.[moe]([m5C])p.[moe](T)p.[moe](A)p.d(T)[sp].d([m5C])[sp].d(T)[sp].d([m5C])[sp].d(A)[sp].d(G)[sp].d([m5C])[sp].d(A)[sp].d([m5C])[sp].d(T)[sp].[moe](A)p.[moe](G)p.[moe](G)[sp].[moe](G)}$$$$ (last 3' nucleoside missing)	2
RNA1{[moe](G)[sp].[moe](A)p.[moe]([m5C])p.[moe](T)p.[moe](A)p.d([m5C])[sp].d(T)[sp].d(T)[sp].d([m5C])[sp].d(A)[sp].d(A)[sp].d([m5C])[sp].d([m5C])[sp].d(T)[sp].d(G)[sp].[moe](A)p.[moe](T)p.[moe](A)[sp].[moe]([m5C])}$$$$ (last 3' nucleoside missing)	2
RNA1{[moe](G)[sp].[moe](G)p.[moe](A)p.[moe](A)p.[moe](G)p.d(G)[sp].d(A)[sp].d(A)[sp].d(A)[sp].d([m5C])[sp].d(A)[sp].d([m5C])[sp].d(A)[sp].d([m5C])[sp].d(A)[sp].[moe](T)p.[moe](A)p.[moe](A)[sp].[moe](T)}$$$$ (last 3' nucleoside missing)	0.5
RNA1{[moe](G)[sp].[moe](G)p.[moe](A)p.[moe](G)p.[moe](A)p.d([m5C])[sp].d(A)[sp].d(A)[sp].d(T)[sp].d([m5C])[sp].d(T)[sp].d(A)[sp].d(G)[sp].d(T)[sp].d(T)[sp].[moe](A)p.[moe](G)p.[moe](A)[sp].[moe]([m5C])}$$$$ (last 3' nucleoside missing)	4
RNA1{[moe](G)[sp].[moe](G)p.[moe](A)p.[moe](G)p.[moe](G)p.d(G)[sp].d(A)[sp].d(G)[sp].d(G)[sp].d(A)[sp].d(A)[sp].d(A)[sp].d(A)[sp].d(T)[sp].d(T)[sp].[moe](A)p.[moe](T)p.[moe](T)[sp].[moe](T)}$$$$ (last 3' nucleoside missing)	0.5
RNA1{[moe](G)[sp].[moe](G)p.[moe](A)p.[moe](T)p.[moe](G)p.d(G)[sp].d(T)[sp].d(G)[sp].d(T)[sp].d(G)[sp].d(T)[sp].d(A)[sp].d(T)[sp].d(G)[sp].d(T)[sp].[moe](T)p.[moe](A)p.[moe](T)[sp].[moe](G)}$$$$ (last 3' nucleoside missing)	4.7
RNA1{[moe](G)[sp].[moe](G)p.[moe](A)p.[moe](T)p.[moe](G)p.d(G)[sp].d(T)[sp].d(T)[sp].d(G)[sp].d(A)[sp].d([m5C])[sp].d([m5C])[sp].d(T)[sp].d([m5C])[sp].d(A)[sp].[moe](A)p.[moe](A)p.[moe](A)[sp].[moe](T)}$$$$ (last 3' nucleoside missing)	3.8
